In patent US20190031667A1, “PESTICIDALLY ACTIVE HETEROCYCLIC DERIVATIVES WITH SULPHUR CONTAINING SUBSTITUENTS” (SYNGENTA PARTICIPATIONS AG, priority 2016, published 2019):

How the values were obtained:
Format in all cases: in vivo
[1] = tested on: Bemisia tabaci (Cotton White Fly); assay: Example B7: Activity against Bemisia tabaci, sprayed cotton leaf discs; settings: foliar, 144 h, application rate 200 ppm, adult white flies, 6 days after incubation
Experimental: Example B7: Activity Against Bemisia tabaci (Cotton White Fly)
Cotton leaf discs were placed onto agar in 24-well microtiter plates and sprayed with aqueous test solutions prepared from 10′000 ppm DMSO stock solutions. After drying the leaf discs were infested with adult white flies. The samples were checked for mortality 6 days after incubation.

[2] = tested on: Diabrotica Balteata (Corn Root Worm); assay: Example B4: Activity against Diabrotica balteata, sprayed maize sprouts; settings: 96 h, application rate 200 ppm, L2 larvae, 4 days after infestation, read-out: effect in at least one of the two categories (mortality or growth inhibition)
Experimental: Example B4: Activity Against Diabrotica Balteata (Corn Root Worm)
Maize sprouts, placed onto an agar layer in 24-well microtiter plates were treated with aqueous test solutions prepared from 10′000 ppm DMSO stock solutions by spraying. After drying, the plates were infested with L2 larvae (6 to 10 per well). The samples were assessed for mortality and growth inhibition in comparison to untreated samples 4 days after infestation.

[3] = tested on: Plutella xylostella (Diamond Back Moth); assay: Example B3: Activity against Plutella xylostella, artificial diet; settings: 120 h, application rate 200 ppm, L2 larvae, 5 days after infestation, read-out: effect in at least one of the two categories (mortality or growth inhibition)
Experimental: Example B3: Activity Against Plutella xylostella (Diamond Back Moth)
24-well microtiter plates with artificial diet were treated with aqueous test solutions prepared from 10′000 ppm DMSO stock solutions by pipetting. After drying, the plates were infested with L2 larvae (10 to 15 per well). The samples were assessed for mortality and growth inhibition in comparison to untreated samples 5 days after infestation.

[4] = tested on: Myzus persicae (Green Peach Aphid); assay: Example B5: Activity against Myzus persicae, sprayed sunflower leaf discs; settings: foliar, 144 h, application rate 200 ppm, mixed-age aphids, 6 days after infestation
Experimental: Example B5: Activity Against Myzus persicae (Green Peach Aphid)
Sunflower leaf discs were placed onto agar in a 24-well microtiter plate and sprayed with aqueous test solutions prepared from 10′000 ppm DMSO stock solutions. After drying, the leaf discs were infested with an aphid population of mixed ages. The samples were assessed for mortality 6 days after infestation.

[5] = tested on: Spodoptera littoralis (Egyptian cotton leaf worm); assay: Example B1: Activity against Spodoptera littoralis, sprayed cotton leaf discs; settings: foliar, 72 h, application rate 200 ppm, L1 larvae, 3 days after infestation
Experimental: Example B1: Activity against Spodoptera littoralis (Egyptian cotton leaf worm) Cotton leaf discs were placed onto agar in 24-well microtiter plates and sprayed with aqueous test solutions prepared from 10′000 ppm DMSO stock solutions. After drying the leaf discs were infested with five L1 larvae. The samples were assessed for mortality, anti-feeding effect, and growth inhibition in comparison to untreated samples 3 days after infestation. Control of Spodoptera littoralis by a test sample is given when at least one of the categories mortality, anti-feedant effect, and growth inhibition is higher than the untreated sample.

[6] = tested on: Euschistus heros (Neotropical Brown Stink Bug); assay: Example B8: Activity against Euschistus heros, sprayed soybean leaves; settings: 120 h, application rate 200 ppm, N2 nymphs, 5 days after infestation, read-out: effect in at least one of the two categories (mortality or growth inhibition)
Experimental: Example B8: Activity Against Euschistus heros (Neotropical Brown Stink Bug)
Soybean leaves on agar in 24-well microtiter plates were sprayed with aqueous test solutions prepared from 10′000 ppm DMSO stock solutions. After drying the leaves were infested with N2 nymphs. The samples were assessed for mortality and growth inhibition in comparison to untreated samples 5 days after infestation.

[7] = tested on: Spodoptera littoralis (Egyptian cotton leaf worm); assay: Example B2: Activity against Spodoptera littoralis, systemic via lettuce roots in agar; settings: 144 h, test rate 12.5 ppm, uptake by lettuce roots from agar, 6 days after infestation, read-out: effect in at least one of the three categories (mortality, anti-feeding, or growth inhibition)
Text: Example B2: Activity against Spodoptera littoralis (Egyptian cotton leaf worm) Test compounds were applied by pipette from 10′000 ppm DMSO stock solutions into 24-well plates and mixed with agar. Lettuce seeds were placed onto the agar and the multi well plate was closed by another plate which contained also agar. After 7 days the compound was absorbed by the roots and the lettuce grew into the lid plate. The lettuce leaves were then cut off into the lid plate. Spodoptera eggs were pipetted through a plastic stencil onto a humid gel blotting paper and the lid plate was closed with it. The samples were assessed for mortality, anti-feedant effect and growth inhibition in comparison to untreated samples 6 days after infestation.

[8] = tested on: Myzus persicae (Green Peach Aphid); assay: Example B6: Activity against Myzus persicae, systemic via pea seedling roots; settings: 144 h, test rate 24 ppm, roots of infested pea seedlings in test solution, 6 days
Experimental: Example B6: Activity Against Myzus persicae (Green Peach Aphid)
Roots of pea seedlings infested with an aphid population of mixed ages were placed directly in the aqueous test solutions prepared from 10′000 DMSO stock solutions. The samples were assessed for mortality 6 days after placing seedlings in test solutions.

CCS(=O)(=O)c1ccc(-n2cccn2)nc1-n1nc2cc(C(F)(F)F)ncc2c1Cl [Compound P11]
≥ 80%: mortality at 200 ppm [1]

CCS(=O)(=O)c1ccc(N)nc1-n1cc2cnc(C(F)(F)F)cc2n1 [Compound P16, 5-ethylsulfonyl-6-[6-(trifluoromethyl)pyrazolo[4,3-c]pyridin-2-yl]pyridin-2-amine]
≥ 80%: percent effect (mortality or growth inhibition) at 200 ppm [2] | percent effect (mortality or growth inhibition) at 200 ppm [3] | mortality at 200 ppm [4] | percent control (mortality, anti-feedant effect or growth inhibition) at 200 ppm [5] | percent effect (mortality or growth inhibition) at 200 ppm [6] | percent effect (mortality, anti-feeding or growth inhibition) at 12.5 ppm [7] | mortality at 24 ppm [8]

CCS(=O)(=O)c1cc(Cl)c(N)nc1-n1cc2cnc(C(F)(F)F)cc2n1 [Compound P19, 3-chloro-5-ethylsulfonyl-6-[6-(trifluoromethyl)pyrazolo[4,3-c]pyridin-2-yl]pyridin-2-amine]
≥ 80%: percent effect (mortality or growth inhibition) at 200 ppm [2] | percent effect (mortality or growth inhibition) at 200 ppm [3] | mortality at 200 ppm [4] | percent control (mortality, anti-feedant effect or growth inhibition) at 200 ppm [5] | percent effect (mortality or growth inhibition) at 200 ppm [6] | percent effect (mortality, anti-feeding or growth inhibition) at 12.5 ppm [7]

CCS(=O)(=O)c1ccc(-n2cnc(Cl)n2)nc1-n1cc2cnc(C(F)(F)F)cc2n1 [Compound P25]
≥ 80%: percent effect (mortality or growth inhibition) at 200 ppm [2] | percent effect (mortality or growth inhibition) at 200 ppm [3] | mortality at 200 ppm [4] | percent control (mortality, anti-feedant effect or growth inhibition) at 200 ppm [5] | mortality at 200 ppm [1] | percent effect (mortality or growth inhibition) at 200 ppm [6]
